Paper PMC10291704 (Biology of blood and marrow transplantation : journal of …, 2019)
Several values for one entry are separate records, joined by “and”; a condition that tells them apart may be missing. Identical values can stand only once. Like-named read-outs stand apart in the source and are kept apart here.

How the values were obtained:
[1] = test system: human cell-line model of busulfan-resistant acute myelogenous leukemia; conditions: cited from earlier work; for inhibitory concentration: busulfan-resistant AML cell line
[2] = assay type: in vivo, human
[3] = cited from earlier work
[4] = 16 patients, 40 mg/m^2/day; cited from earlier work
[5] = between WBC of 0.3 × 10^3 /μL and 259 × 10^3 /μL; cited from earlier work

Nc1nc(F)nc2c1ncn2[C@@H]1O[C@H](CO)[C@@H](O)[C@@H]1O [fludarabine]
inhibitory concentration [1]: 3.0 µM

Nc1nc(Cl)nc2c1ncn2[C@@H]1O[C@H](CO)[C@@H](O)[C@@H]1F [clo-fara, clofarabine]
Additive error ([2]; bootstrap mean value): 0.36 ng/mL
Proportional residual unexplained variability ([2]; bootstrap mean value): 32.7%
Volume of the peripheral compartment (Vp) ([2]; bootstrap mean value): 47.3 L/15kg
between-subject variability for volume of central compartment ([2]; final model): 40%
Additive error ([2]; final model parameter estimate): 0.36 ng/mL
Proportional residual unexplained variability ([2]; final model parameter estimate): 33% and 33.2%
Volume of the peripheral compartment (Vp) ([2]; final model parameter estimate): 47 L/15kg and 47.4 L/15kg
AUC ([2]; human, in vivo): 3300 ng·h/mL
Inter-compartmental CL ([2]; human, in vivo): 164 mL/min/kg
Maturation half-time (Thalf) of age effect on CL ([2]; human, in vivo): 0.41 years
Typical value for clo-fara CL ([2]; human, in vivo): 23.4 L/h/15kg
between-subject variability for clo-fara CL ([2]; human, in vivo): 26%
clearance ([2]; human, in vivo): 390 mL/min
intercompartmental CL ([2]; human, in vivo): 9.8 L/h/15kg
AUC at 4 daily doses ([2]; human, in vivo, 10 mg/m2): 1200 ng·h/mL
AUC(0-t) ([2]; human, in vivo, 10 mg/m2, AUC0–24, median (range)): 300 ng·h/mL
AUC at 4 daily doses ([2]; human, in vivo, 30 mg/m2): 3300 ng·h/mL
AUC(0-t) ([2]; human, in vivo, 30 mg/m2, AUC0–24, median (range)): 820 ng·h/mL
AUC0–24, median (range) ([2]; human, in vivo, 40 mg/m2): 1.04 (0.87 – 4.0) mg•hr/L
AUC at 5 daily doses ([2]; human, in vivo, 40 mg/m2): 5200 ng·h/mL
AUC(0-t) ([2]; human, in vivo, 40 mg/m2, AUC0–24, median (range)): 780 ng·h/mL
AUC(0-t) ([2]; human, in vivo, 40 mg/m2, AUC0–24, outlier value of one subject): 4000 ng·h/mL
AUC(0-t) ([2]; human, in vivo, 40 mg/m2, AUC0–24 of the other subjects): ≤ 1170 ng·h/mL
inhibitory concentration [1]: 0.06 µM
difference in cytotoxic activity, clofarabine vs fludarabine ([1]; from inhibitory concentrations): ~50 fold
dose excreted in the urine unchanged ([3]; 24-hour urine collections in pediatric studies): 49–60%
hepatic and non-hepatic metabolic conversion [3]: 0.2%
variability observed in clo-fara PK parameters (CL, AUC, volume of distribution) [4]: 2–3 fold
increase of predicted volume of the central compartment with WBC [5]: 2.38 fold
